Experimental data reported in US7388027B2, “Bicyclic compounds as modulators of androgen receptor function and method” (Bristol-Myers Squibb Company, priority 2004, dated 2008).
pKd: −log10 of the molar value.

Experiments:
AR = molecular target: T1, AR (Rattus norvegicus, UniProt P15207)
T1 sequence (P15207 1-902): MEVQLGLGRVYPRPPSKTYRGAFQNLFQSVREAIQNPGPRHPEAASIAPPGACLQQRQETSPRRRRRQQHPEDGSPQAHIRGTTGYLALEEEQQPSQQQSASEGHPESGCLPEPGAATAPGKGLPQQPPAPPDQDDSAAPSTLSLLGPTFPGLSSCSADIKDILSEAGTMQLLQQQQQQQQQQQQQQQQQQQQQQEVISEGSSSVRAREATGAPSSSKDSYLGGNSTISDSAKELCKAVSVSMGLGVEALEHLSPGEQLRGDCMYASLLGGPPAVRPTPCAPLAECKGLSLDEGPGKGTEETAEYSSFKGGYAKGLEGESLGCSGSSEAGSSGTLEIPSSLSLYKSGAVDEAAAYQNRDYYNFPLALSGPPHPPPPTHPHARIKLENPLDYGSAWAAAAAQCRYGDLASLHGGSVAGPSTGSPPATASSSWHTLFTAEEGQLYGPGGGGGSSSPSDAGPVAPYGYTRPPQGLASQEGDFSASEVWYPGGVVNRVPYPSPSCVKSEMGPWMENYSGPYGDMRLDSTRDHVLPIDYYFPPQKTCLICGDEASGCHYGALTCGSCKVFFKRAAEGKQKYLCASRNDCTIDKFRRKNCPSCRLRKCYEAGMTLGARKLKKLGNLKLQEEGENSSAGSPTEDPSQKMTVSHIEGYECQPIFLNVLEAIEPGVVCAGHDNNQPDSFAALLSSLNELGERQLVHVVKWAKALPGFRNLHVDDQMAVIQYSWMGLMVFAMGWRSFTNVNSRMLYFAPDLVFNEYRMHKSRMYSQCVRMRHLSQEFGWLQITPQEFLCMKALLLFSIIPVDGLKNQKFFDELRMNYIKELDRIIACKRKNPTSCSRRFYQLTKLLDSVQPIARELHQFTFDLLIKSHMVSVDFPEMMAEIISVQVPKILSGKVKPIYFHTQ
Excerpt: The activity of compounds of the present invention as AR agonists was investigated in an immature male rat model, a recognized test of anabolic effects in muscle and sustaining effects in sex organs for a given compound, as described in L. G. Hershberger et al., Proc. Soc. […] Biol. Med., 83, 175 (1953); B. L. Beyler et al, “Methods for evaluating anabolic and catabolic agents in laboratory animals”, J. Amer. Med. Women's Ass., 23, 708 (1968); H. Fukuda et al., “Investigations of the levator ani muscle as an anabolic steroid assay”, Nago Dai. Yak. Ken. Nem. 14, 84 (1966) the disclosures of which are herein incorporated by reference.
The basis of this assay lies in the well-defined action of androgenic agents on the maintenance and growth of muscle tissues and sexual accessory organs in animals and man. […] J. Anat. […] I. Quantitative data” Boll.-Soc. Ital. Biol. Sper. […] II. Electron-microscopic observations” Boll.-Soc. Ital. Biol. Sper. 42, 1600 (1966); A. Boris et al., Steroids 15, 61 (1970). As described above, the effects of androgens on maintenance of male sexual accessory organs, such as the prostate and seminal vesicles, is well described. Castration results in rapid involution and atrophy of the prostate and seminal vesicles. This effect can be reversed by exogenous addition of androgens. […]

[1] = tested on: endogenous glucocorticoid receptor (A549 cells, AP-1 luciferase reporter); test: In vitro assay to measure GR-induced AP-1 transrepression (luciferase reporter in A549 cells); type: cell-based; settings: concentration of ≦10 μM; 10 ng/mL PMA; 7 h; typical value
Protocol: The AP-1 assay is a cell-based luciferase reporter assay. A549 cells, which contain endogenous glucocorticoid receptor, were stably transfected with an AP-1 DNA binding site attached to the luciferase gene. Cells are then grown in RPMI+10% fetal calf serum (charcoal-treated)+Penicillin/Streptomycin with 0.5 mg/mL geneticin. Cells are plated the day before the assay at approximately 40000 cells/well. On assay day, the media is removed by aspiration and 20 μL assay buffer (RPMI without phenol red+10% FCS (charcoal-treated)+Pen/Strep) is added to each well. At this point either 20 μL assay buffer (control experiments), the compounds of the present invention (“test compounds”) (dissolved in DMSO and added at varying concentrations) or dexamethasome (100 nM in DMSO, positive control) are added to each well. The plates are then pre-incubated for 15 min at 37° C., followed by stimulation of the cells with 10 ng/mL PMA. The plates are then incubated for 7 h at 37° C. after which 40 μL luciferase substrate reagent is added to each well. Activity is measured by analysis in a luminometer as compared to control experiments treated with buffer or dexamethasome.

[2] = tested on: wild type AR (MDA 453 cells); settings: read-out: Kd for [3H]-DHT, Scatchard analysis, 4 h at 37° C.
Protocol: For the whole-cell binding assay, human LNCaP cells (T877A mutant AR) or MDA 453 (wild type AR) in 96-well microtiter plates containing RPMI 1640 or DMEM supplemented with 10% charcoal stripped CA-FBS (Cocaleco Biologicals) respectively, were incubated at 37° C. to remove any endogenous ligand that might be complexed with the receptor in the cells.
For the saturation analysis, the difference between the total binding and the non-specific binding, was defined as specific binding. […] See e.g. D. Rodbard, Mathematics and statistics of ligand assays: an illustrated guide: In: J. Langon and J. J. Clapp, eds., Ligand Assay, Masson Publishing U.S.A., Inc., New York, pp. 45-99, (1981), the disclosure of which is herein incorporated by reference.
[formula] After correcting for non-specific binding, IC50 values were determined. […] C2C12 Mouse Myoblast Transactivation Assay

## CCC(=O)O[C@H]1CC[C@H]2[C@@H]3CCC4=CC(=O)CC[C@]4(C)[C@H]3CC[C@]12C [TP, testosterone propionate]
AR; immature castrated rats
  EC50 (increase in organ weight): ~0.03 mg
AR; organ weight increase, rats
  potency relative to free T: 10-30 fold

## C[C@@H]1C[C@H]2[C@@H]3CCC4=CC(=O)C=C[C@]4(C)[C@@]3(F)[C@@H](O)C[C@]2(C)[C@@]1(O)C(=O)CO [dexamethasone]
[1]
  suppression of activity (% inhibition of the reporter system vs buffer control with PMA alone): 65%

## tritiated dihydrotestosterone [[^3H]-DHT]
[2]
  pKd: 9.15
